These results are taken from patent publication US20260355094A1, “COMBINATION OF AN ORGANOSILICON COMPOUND WITH A CROSSLINKED GLYCOSAMINOGLUCAN FOR PREVENTING AND REPAIRING CUTANEOUS AGEING” (LABORATOIRES FILL-MED MANUFACTURING, priority 2022, published 2026).

The test system of one test is fibroblasts. Description: Contractile force of fibroblasts in equivalent dermis (Glassbox system). The test is classed as cell-based. The following applies: 2.5 ng/ml, positive contraction control. How it is done:
AFU+Si was tested to evaluate the effect on contractile force of fibroblasts in a Glassbox system, when compared to Si and AFU.
An equivalent dermis was developed in a culture box consisting of eight rectangular tanks. In each tank, two flexible blades were plunged, the lower parts of which were made up of grids on which the equivalent dermis clang during its polymerization. The equivalent dermis developed between the two blades to result in a rectangular shape slightly narrowed in the center.
Under the influence of the contraction forces developed by fibroblasts, the blades were deformed. Their deformation was measured in real time using optical fibers and adapted software. The deformation was proportional to the force developed within the equivalent dermis.
Prior to the test for contractile force, different concentrations of products diluted in cellular culture medium were tested for cellular viability. Among these, the following concentrations were chosen for the contractile force test: 0.005%, 0.05%, 0.0005% and 0.0025%.

The subject of test [1] is hyaluronan synthase type 2 (HAS2). The following applies: in combination with resveratrol; human skin fibroblasts; cited from earlier work.
Another test relates to elastin. The following applies: in combination with resveratrol; human skin fibroblasts; cited from earlier work.
The next test deals with collagen type I. The following applies: in combination with resveratrol; human skin fibroblasts; cited from earlier work.

Consider “TGFβ1: used as a positive contraction control”, for which, in the test with fibroblasts, the contractile forces result was “significant increase in contractile forces”.
As for `C[SiH2]O.O=C[C@@H](O)[C@@H](O)[C@H](O)[C@H](O)C(=O)O` [methylsilanol mannuronate], the “expression of hyaluronan synthase type 2 (HAS2) gene” value in test [1] is on record as “promoting the expression”. Further, the “expression of elastin gene” value with elastin is recorded as “promoting the expression”. Further, the “expression of collagen type I gene” value in the test on collagen type I is reported as “promoting the expression”.
